From ChEMBL document CHEMBL4823287, “Design and synthesis of novel 5-alkynyl pyrimidine nucleosides derivatives: Influence of C-6-substituent on antituberculosis activity” (2021)
≈ marks a conversion by molar mass, not a printed value.

Experiments:
Format in all cases: functional
[1] = test system: Mycobacterium tuberculosis; assay: Antimycobacterial activity against Mycobacterium tuberculosis H37Ra assessed as inhibition of bacterial growth at 10 ug/ml measured by microplate alamar blue assay
[2] = test system: Mycobacterium tuberculosis; assay: Antimycobacterial activity against Mycobacterium tuberculosis H37Ra assessed as inhibition of bacterial growth at 1 to 5 ug/ml measured by microplate alamar blue assay; conditions: dose 1-5 µg/ml; at 1 to 5 µg/mL
[3] = test system: Mycobacterium tuberculosis; assay: Antimycobacterial activity against Mycobacterium tuberculosis H37Ra assessed as inhibition of bacterial growth measured by microplate alamar blue assay
[4] = test system: Mycobacterium tuberculosis; assay: Antimycobacterial activity against Mycobacterium tuberculosis H37Ra assessed as inhibition of bacterial growth at 100 ug/ml measured by microplate alamar blue assay
[5] = test system: Mycobacterium tuberculosis; assay: Antimycobacterial activity against Mycobacterium tuberculosis H37Ra assessed as inhibition of bacterial growth at 25 ug/ml measured by microplate alamar blue assay
[6] = test system: Mycobacterium tuberculosis; assay: Antimycobacterial activity against Mycobacterium tuberculosis H37Ra assessed as inhibition of bacterial growth at 50 ug/ml measured by microplate alamar blue assay
[7] = test system: Mycobacterium tuberculosis; assay: Antimycobacterial activity against Mycobacterium tuberculosis H37Ra assessed as inhibition of bacterial growth at 1 ug/ml measured by microplate alamar blue assay
[8] = test system: Mycobacterium tuberculosis; assay: Antimycobacterial activity against Mycobacterium tuberculosis H37Ra assessed as inhibition of bacterial growth at 5 ug/ml measured by microplate alamar blue assay

Row | Structure (SMILES) | inhibition at 10 µg/mL [1] [%] | inhibition (percent inhibition of bacterial growth) [2] [%] | MIC50 [3] [µg/mL] | inhibition at 100 µg/mL [4] [%] | inhibition at 25 µg/mL [5] [%] | inhibition at 50 µg/mL [6] [%] | inhibition at 1 µg/mL [7] [%] | inhibition at 5 µg/mL [8] [%]
1 | Cc1c(C#CC2CC2)c(=O)[nH]c(=O)n1[C@@H]1O[C@H](CO)[C@@H](O)[C@H]1O | 80 | 50 | 2.3 (≈ 7.14 µM) | 90 | – | – | – | –
2 | CCCCC#Cc1c(C)n([C@@H]2O[C@H](CO)[C@@H](O)[C@H]2O)c(=O)[nH]c1=O | – | 10 | 17.7 (≈ 52.3 µM) | – | 60 | 100 | – | –
3 | Cc1c(C#CCC(C)C)c(=O)[nH]c(=O)n1[C@@H]1O[C@H](CO)[C@@H](O)[C@H]1O | – | 10 | 18.1 (≈ 53.5 µM) | – | 60 | 100 | – | –
4 | NNC(=O)c1ccncc1 [ISONIAZID] | – | – | 0.8 (≈ 5.83 µM) | – | – | – | 100 | –
5 | Cc1c(C#Cc2ccccc2)c(=O)[nH]c(=O)n1[C@@H]1O[C@H](CO)[C@@H](O)[C@H]1O | 75 | 50 | 2.6 (≈ 7.26 µM) | 90 | – | 75 | – | –
6 | CCCC#Cc1c(C)n([C@@H]2O[C@H](CO)[C@@H](O)[C@H]2O)c(=O)[nH]c1=O | 0 | – | < 50 | 90 | – | 60 | – | –
7 | CCCCCCC#Cc1c(C)n([C@@H]2O[C@H](CO)[C@@H](O)[C@H]2O)c(=O)[nH]c1=O | – | – | < 50 | 90 | – | 70 | – | –
8 | Cc1c(C#CC(O)c2ccccc2)c(=O)[nH]c(=O)n1[C@@H]1O[C@H](CO)[C@@H](O)[C@H]1O (stereo partly specified) | – | – | 0.6 (≈ 1.54 µM) | – | – | – | 100 | –
9 | Cc1c(C#CC2CCCCC2)c(=O)[nH]c(=O)n1[C@@H]1O[C@H](CO)[C@@H](O)[C@H]1O | – | 10 | 14.1 (≈ 38.7 µM) | – | 60 | 100 | – | –
10 | CO[C@H]1/C=C/O[C@@]2(C)Oc3c(C)c(O)c4c(O)c(c(/C=N/N5CCN(C)CC5)c(O)c4c3C2=O)NC(=O)/C(C)=C\C=C\[C@H](C)[C@H](O)[C@@H](C)[C@@H](O)[C@@H](C)[C@H](OC(C)=O)[C@@H]1C [RIFAMPIN] | – | – | 0.7 (≈ 0.851 µM) | – | – | – | 100 | –
11 | N[C@@H]1CONC1=O [CYCLOSERINE] | 67 | – | 5.2 (≈ 50.9 µM) | – | – | – | – | 50
12 | Cc1c(C#C[Si](C)(C)C)c(=O)[nH]c(=O)n1[C@@H]1O[C@H](CO)[C@@H](O)[C@H]1O | – | – | – | 0 | – | – | – | –
13 | CC#Cc1c(C)n([C@@H]2O[C@H](CO)[C@@H](O)[C@H]2O)c(=O)[nH]c1=O | 10 | – | 50 (≈ 169 µM) | 90 | – | 50 | – | –
14 | CCC#Cc1c(C)n([C@@H]2O[C@H](CO)[C@@H](O)[C@H]2O)c(=O)[nH]c1=O | 10 | – | 50 (≈ 161 µM) | 90 | – | 50 | – | –
